Where a SMILES comes first, the peptide text is derived from it. Where no end group is shown, it is not given here.
Assays:
[1] = test system: guinea pigs sensitized with heat-killed M. bovis BCG-Pasteur; assay: Tuberculin skin test in BCG-sensitized guinea pigs; assay type: in vivo; settings: for skin reaction: 200 μg dose in 100 μl PBS intradermally; for skin reaction / color intensity of skin reaction: after 24 h; for color intensity of skin reaction: 200 μg dose intradermally; for enduration: 200 μg peptide intradermally
Procedure: (§1) The tuberculin tests were carried out on guinea pigs sensitized 6 weeks before with heat-killed Mycobacterium tuberculosis strain Peurois or M. bovis BCG-Pasteur.
(§2) Doses of 200 μg of the octopeptide of formula (I) or of the hexadecapeptide of formula (II) in 100 µl of PBS buffer containing Tween 80, were administered intradermally in the ventral side of guinea pigs sensitized as mentioned above.
(§3) The appearance of a delayed-type tuberculin reaction was observed 24 h and 48 h after the injection.

[2] = test system: anti-octapeptide antiserum; assay type: binding, Rabbits
[3] = peptides obtained after enzymatic digestion of the tuberculin-active protein; cited from earlier work
[4] = test system: guinea pigs sensitized with heat-killed Mycobacterium tuberculosis strain Peurois; assay: Tuberculin skin test in M. tuberculosis strain Peurois-sensitized guinea pigs; settings: 200 μg dose, after 24 h
Procedure: as §1, §2, §3

BCG-infected mice = settings: cited from earlier work
[5] = test system: Mycobacterium tuberculosis-sensitized guinea pigs; settings: cited from earlier work

Compound	skin reaction [1] [mm]	color intensity of skin reaction [1]	enduration [1]	amount required to displace half of the label in radioimmunoassays [2] [pg]	tuberculin activity in skin tests [3]	further results
N[C@@H](CC(=O)O)C(=O)NCC(=O)NCC(=O)N[C@@H](CO)C(=O)N[C@@H](CCC(=O)O)C(=O)N[C@@H](CO)C(=O)N[C@@H](CCC(=O)O)C(=O)NCC(=O)O [octapeptide of formula (I), Asp-Gly-Gly-Ser-Glu-Ser-Glu-Gly] (H-DGGSESEG-OH)	4	low color intensity	little or no enduration	250		
DGGSESEGK [nonapeptide 61-69]					residual tuberculin activity	
DGGSESEGKNGSQMRL [hexadecapeptide of formula (II)]	8	low color intensity	little or no enduration	500000		level of recognition relative to octapeptide of formula (I) ([2]; taking into account the molecular weight): 0.1%; enduration (average) [4]: 12 mm; erythematous area, diameter (average) [4]: 11 mm
NGSQMR [hexapeptide 70-75]					residual tuberculin activity	
NGSQMRL [synthetic heptapeptide]						tuberculin activity (BCG-infected mice): devoid of any tuberculin activity; tuberculin activity in skin tests [5]: devoid of any tuberculin activity
